This is an account of results in publication PMC8741506 (Poultry Science, 2021).

In assay [1] the target is T1, IBV PLpro (Avian infectious bronchitis virus (strain M41), UniProt P0C6Y3). As to the kind of experiment: UB-AMC deubiquitination, fluorescence kinetics. The note with it: read-out: relative enzymatic activity at 100 μM. The assay is classed as biochemical.
The target of assay [2] is T1, IBV PLpro. As to the kind of experiment: UB-AMC deubiquitination, fluorescence kinetics. The class given is biochemical.

T1 sequence (P0C6Y3 1177-1499): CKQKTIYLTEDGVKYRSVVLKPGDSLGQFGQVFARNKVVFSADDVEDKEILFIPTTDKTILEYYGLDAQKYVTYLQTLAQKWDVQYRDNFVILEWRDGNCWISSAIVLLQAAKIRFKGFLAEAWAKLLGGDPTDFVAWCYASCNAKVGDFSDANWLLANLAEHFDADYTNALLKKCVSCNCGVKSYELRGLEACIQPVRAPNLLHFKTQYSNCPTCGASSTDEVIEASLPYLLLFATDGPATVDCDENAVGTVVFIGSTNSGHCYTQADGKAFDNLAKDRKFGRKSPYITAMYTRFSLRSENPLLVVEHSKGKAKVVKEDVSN

As for `O=c1cc(-c2ccccc2)oc2cc(O)c(O)c(O)c12` [baicalein], the activity at 100 µM at IBV PLpro [1] was less than 20%. The same measure, in the same setting: for `O=c1c2cc(O)c(O)cc2oc2cc(O)c([C@@H]3O[C@H](CO)[C@@H](O)[C@H](O)[C@H]3O)c(O)c12` [mangiferin] the value was less than 20%.

In turn, `O=c1c(O)c(-c2cc(O)c(O)c(O)c2)oc2cc(O)cc(O)c12` [myricetin] had an IC50 against IBV PLpro [2] of 10.6 µM.

In the case of `C[C@@H]1O[C@@H](O[C@H]2[C@H](Oc3cc(O)c4c(c3)O[C@H](c3ccc(O)cc3)CC4=O)O[C@H](CO)[C@@H](O)[C@@H]2O)[C@H](O)[C@H](O)[C@H]1O` [naringin], on IBV PLpro [1], the activity at 100 µM is less than 20%. Consider `COc1ccc(-c2oc3c(CC=C(C)C)c(O[C@@H]4O[C@H](CO)[C@@H](O)[C@H](O)[C@H]4O)cc(O)c3c(=O)c2O[C@@H]2O[C@@H](C)[C@H](O)[C@@H](O)[C@H]2O)cc1` [icariin], for which the activity at 100 µM at IBV PLpro [1] was less than 20%.

On to `O=c1cc(-c2ccccc2)oc2cc(O)cc(O)c12` [chrysin], for which the activity at 100 µM on IBV PLpro [1] was less than 20%.
